# From patent US10577317B2, “Crystal forms and production methods thereof” (Sunovion Pharmaceuticals Inc., priority 2017, dated 2020)
# Experiments:
# [1] = DVS water sorption isotherm, 25° C. scanned over 0 to 95% relative humidity (hygroscopicity); assay type: physicochemical
# From the text: In various embodiments, the hygroscopicity of crystal forms of racemic amisulpride, enantiomeric amisulpride, and enantiomeric amisulpride solvates are characterized by dynamic vapor sorption (DVS). DVS is a gravimetric technique that measures how much of a solvent is absorbed by a sample by varying the vapor concentration surrounding the sample (e.g., relative humidity) and measuring the change in mass. In the present application, DVS is used to generate water sorption isotherms, which represent the equilibrium amount of vapor sorbed as a function of steady state relative vapor pressure at a constant temperature.
# [2] = Solid form stability on storage at 25° C. and 60% relative humidity; assay type: physicochemical; details: after 4 months at 25° C. and 60% relative humidity (RH)
smiles,measurement,setting,value
"CCN1CCC[C@H]1CNC(=O)c1cc(S(=O)(=O)CC)c(N)cc1OC [(S)-amisulpride Form A′, S-4-Amino-N-[(1-ethyl-2-pyrrolidinyl)methyl]-5-(ethylsulfonyl)-2-methoxybenzamide]",Change Mass,"[1]; FIG. 3E, RH 30.10 %, elapse time 884.1 min",−0.001 wt %
same,Change Mass,"[1]; FIG. 3E, RH 34.80 %, elapse time 305.8 min",0.026 wt %
same,Change Mass,"[1]; FIG. 3E, RH 34.87 %, elapse time 641.9 min",0.024 wt %
same,Change Mass,"[1]; FIG. 3E, RH 34.94 %, elapse time 875.6 min",0.005 wt %
same,Change Mass,"[1]; FIG. 3E, RH 34.95 %, elapse time 543.9 min",0.038 wt %
same,Change Mass,"[1]; FIG. 3E, RH 39.84 %, elapse time 314.8 min",0.033 wt %
same,Change Mass,"[1]; FIG. 3E, RH 39.90 %, elapse time 865.6 min",0.011 wt %
same,Change Mass,"[1]; FIG. 3E, RH 39.92 %, elapse time 533.9 min",0.045 wt %
same,Change Mass,"[1]; FIG. 3E, RH 39.94 %, elapse time 650.9 min",0.028 wt %
same,Change Mass,"[1]; FIG. 3E, RH 44.92 %, elapse time 659.9 min",0.034 wt %
same,Change Mass,"[1]; FIG. 3E, RH 45.02 %, elapse time 325.8 min",0.040 wt %
same,Change Mass,"[1]; FIG. 3E, RH 45.04 %, elapse time 523.9 min",0.053 wt %
same,Change Mass,"[1]; FIG. 3E, RH 45.07 %, elapse time 856.1 min",0.018 wt %
same,Change Mass,"[1]; FIG. 3E, RH 49.78 %, elapse time 334.8 min",0.047 wt %
same,Change Mass,"[1]; FIG. 3E, RH 49.88 %, elapse time 668.9 min",0.040 wt %
same,Change Mass,"[1]; FIG. 3E, RH 50.07 %, elapse time 845.0 min",0.026 wt %
same,Change Mass,"[1]; FIG. 3E, RH 50.10 %, elapse time 512.9 min",0.060 wt %
same,Change Mass,"[1]; FIG. 3E, RH 54.90 %, elapse time 345.8 min",0.055 wt %
same,Change Mass,"[1]; FIG. 3E, RH 54.96 %, elapse time 679.9 min",0.046 wt %
same,Change Mass,"[1]; FIG. 3E, RH 55.12 %, elapse time 501.9 min",0.067 wt %
same,Change Mass,"[1]; FIG. 3E, RH 55.14 %, elapse time 834.0 min",0.035 wt %
same,Change Mass,"[1]; FIG. 3E, RH 59.94 %, elapse time 356.8 min",0.062 wt %
same,Change Mass,"[1]; FIG. 3E, RH 59.95 %, elapse time 688.9 min",0.053 wt %
same,Change Mass,"[1]; FIG. 3E, RH 60.08 %, elapse time 490.9 min",0.075 wt %
same,Change Mass,"[1]; FIG. 3E, RH 60.19 %, elapse time 823.0 min",0.044 wt %
same,Change Mass,"[1]; FIG. 3E, RH 64.92 %, elapse time 699.9 min",0.060 wt %
same,Change Mass,"[1]; FIG. 3E, RH 65.00 %, elapse time 365.8 min",0.071 wt %
same,Change Mass,"[1]; FIG. 3E, RH 65.13 %, elapse time 814.0 min",0.053 wt %
same,Change Mass,"[1]; FIG. 3E, RH 65.14 %, elapse time 479.9 min",0.081 wt %
same,Change Mass,"[1]; FIG. 3E, RH 69.90 %, elapse time 710.9 min",0.067 wt %
same,Change Mass,"[1]; FIG. 3E, RH 69.95 %, elapse time 376.8 min",0.081 wt %
same,Change Mass,"[1]; FIG. 3E, RH 70.05 %, elapse time 468.9 min",0.088 wt %
same,Change Mass,"[1]; FIG. 3E, RH 70.16 %, elapse time 803.0 min",0.062 wt %
same,Change Mass,"[1]; FIG. 3E, RH 74.60 %, elapse time 385.8 min",0.089 wt %
same,Change Mass,"[1]; FIG. 3E, RH 74.67 %, elapse time 719.9 min",0.074 wt %
same,Change Mass,"[1]; FIG. 3E, RH 75.19 %, elapse time 457.9 min",0.096 wt %
same,Change Mass,"[1]; FIG. 3E, RH 75.43 %, elapse time 792.0 min",0.073 wt %
same,Change Mass,"[1]; FIG. 3E, RH 79.52 %, elapse time 728.9 min",0.081 wt %
same,Change Mass,"[1]; FIG. 3E, RH 79.61 %, elapse time 394.8 min",0.098 wt %
same,Change Mass,"[1]; FIG. 3E, RH 80.43 %, elapse time 783.0 min",0.084 wt %
same,Change Mass,"[1]; FIG. 3E, RH 80.44 %, elapse time 448.8 min",0.105 wt %
same,Change Mass,"[1]; FIG. 3E, RH 84.52 %, elapse time 403.8 min",0.109 wt %
same,Change Mass,"[1]; FIG. 3E, RH 84.80 %, elapse time 737.9 min",0.090 wt %
same,Change Mass,"[1]; FIG. 3E, RH 85.39 %, elapse time 774.0 min",0.096 wt %
same,Change Mass,"[1]; FIG. 3E, RH 85.43 %, elapse time 439.8 min",0.117 wt %
same,Change Mass,"[1]; FIG. 3E, RH 89.49 %, elapse time 412.8 min",0.123 wt %
same,Change Mass,"[1]; FIG. 3E, RH 89.52 %, elapse time 746.9 min",0.103 wt %
same,Change Mass,"[1]; FIG. 3E, RH 90.18 %, elapse time 430.8 min",0.129 wt %
same,Change Mass,"[1]; FIG. 3E, RH 90.24 %, elapse time 765.0 min",0.109 wt %
same,Change Mass,"[1]; FIG. 3E, RH 94.51 %, elapse time 421.8 min",0.142 wt %
same,Change Mass,"[1]; FIG. 3E, RH 94.81 %, elapse time 756.0 min",0.122 wt %
same,Change Mass,"[1]; FIG. 3F, RH 19.77 %, elapse time 317.2 min",0.035 wt %
same,Change Mass,"[1]; FIG. 3F, RH 24.90 %, elapse time 326.2 min",0.042 wt %
same,thermodynamic stability of crystal form (conversion to other polymorphs or amorphous form),[2],not substantially converting to other polymorphs or amorphous form
